From the NIST ThermoML archive (doi:10.1016/j.jct.2014.07.018)

How the values were obtained:
[1] = for molar entropy: 101.33 kPa, Vacuum adiabatic calorimetry
[2] = Molar enthalpy of transition or fusion; settings: Crystal 2; Adiabatic calorimetry

CCC[n+]1ccn(C)c1.[Br-] [1-methyl-3-propylimidazolium bromide]
[1]
Settings	Glass transition temperature [°C]	molar entropy [J/K/mol]
0 K, Glass	–	15.3
5 K, Crystal 2	–	0.097
5 K, Glass	–	15.6
10 K, Crystal 2	–	0.884
10 K, Glass	–	17.7
15 K, Crystal 2	–	3.03
15 K, Glass	–	21.6
20 K, Crystal 2	–	6.53
20 K, Glass	–	26.8
25 K, Crystal 2	–	11.08
25 K, Glass	–	32.9
30 K, Crystal 2	–	16.39
30 K, Glass	–	39.5
35 K, Crystal 2	–	22.19
35 K, Glass	–	46.3
40 K, Crystal 2	–	28.28
40 K, Glass	–	53.3
45 K, Crystal 2	–	34.52
45 K, Glass	–	60.2
50 K, Crystal 2	–	40.8
50 K, Glass	–	67.1
60 K, Crystal 2	–	53.3
60 K, Glass	–	80.6
70 K, Crystal 2	–	65.48
70 K, Glass	–	93.6
80 K, Crystal 2	–	77.24
80 K, Glass	–	106.1
90 K, Crystal 2	–	88.54
90 K, Glass	–	118.1
100 K, Crystal 2	–	99.4
100 K, Glass	–	129.6
110 K, Crystal 2	–	109.8
110 K, Glass	–	140.6
120 K, Crystal 2	–	119.9
120 K, Glass	–	151.2
130 K, Crystal 2	–	129.6
130 K, Glass	–	161.4
140 K, Crystal 2	–	139
140 K, Glass	–	171.3
150 K, Crystal 2	–	148
150 K, Glass	–	180.8
160 K, Crystal 2	–	156.9
160 K, Glass	–	190.2
170 K, Crystal 2	–	165.5
170 K, Glass	–	199.3
180 K, Crystal 2	–	173.9
180 K, Glass	–	208.2
190 K, Crystal 2	–	182.2
190 K, Glass	–	217
200 K, Crystal 2	–	190.2
200 K, Glass	–	225.6
210 K, Crystal 2	–	198.2
210 K, Glass	–	234.3
220 K, Crystal 2	–	206.1
220 K, Liquid	–	244.9
230 K, Crystal 2	–	213.8
230 K, Liquid	–	256.5
240 K, Crystal 2	–	221.5
240 K, Liquid	–	267.7
250 K, Crystal 2	–	229.2
250 K, Liquid	–	278.5
260 K, Crystal 2	–	236.8
260 K, Liquid	–	289
270 K, Crystal 2	–	244.4
270 K, Liquid	–	299.2
280 K, Crystal 2	–	252.1
280 K, Liquid	–	309.1
290 K, Crystal 2	–	259.9
290 K, Liquid	–	318.8
298.15 K, Crystal 2	–	266.3
298.15 K, Liquid	–	326.6
300 K, Liquid	–	328.3
309.54 K, Crystal 2	–	275.4
309.54 K, Liquid	–	337.2
310 K, Liquid	–	337.6
320 K, Liquid	–	346.7
330 K, Liquid	–	355.6
340 K, Liquid	–	364.4
350 K, Liquid	–	373
360 K, Liquid	–	381.5
370 K, Liquid	–	389.8
Glass, Adiabatic calorimetry	-60	–

Settings	Triple point temperature [K]
[1], Crystal 2, Adiabatic calorimetry	309.54

Settings	Molar enthalpy of transition or fusion [kcal/mol]
[2]	4.567
